Legend:
[1] = Drug metabolism in rat liver microsomes assessed as oxidative/degradative M1 metabolite formation at 10 uM after 120 mins in presence of NADPH by LC/MS/MS analysis; assay type: ADME; details: 2 h
[2] = Half life in human liver microsomes by LC/MS/MS analysis; assay type: ADME
[3] = AUC (0 to infinity) in Sprague-Dawley rat at 5 mg/kg, po by LC/MS/MS analysis; assay type: ADME, organism-based; parameters: dose 5 mg/kg, time infinity, route oral; details: in vivo
[4] = Drug metabolism in human liver microsomes assessed as oxidative/degradative M6 metabolite formation at 10 uM after 120 mins in presence of NADPH by LC/MS/MS analysis; assay type: ADME; details: 2 h
Cytochrome P450 1A2 = target: T1, Cytochrome P450 1A2 (Homo sapiens, UniProt P05177); assay: Inhibition of CYP1A2 in human liver microsomes using phenacetin as substrate in presence of NADPH by LC/MS/MS analysis; assay type: ADME
T1 sequence (P05177 whole entry): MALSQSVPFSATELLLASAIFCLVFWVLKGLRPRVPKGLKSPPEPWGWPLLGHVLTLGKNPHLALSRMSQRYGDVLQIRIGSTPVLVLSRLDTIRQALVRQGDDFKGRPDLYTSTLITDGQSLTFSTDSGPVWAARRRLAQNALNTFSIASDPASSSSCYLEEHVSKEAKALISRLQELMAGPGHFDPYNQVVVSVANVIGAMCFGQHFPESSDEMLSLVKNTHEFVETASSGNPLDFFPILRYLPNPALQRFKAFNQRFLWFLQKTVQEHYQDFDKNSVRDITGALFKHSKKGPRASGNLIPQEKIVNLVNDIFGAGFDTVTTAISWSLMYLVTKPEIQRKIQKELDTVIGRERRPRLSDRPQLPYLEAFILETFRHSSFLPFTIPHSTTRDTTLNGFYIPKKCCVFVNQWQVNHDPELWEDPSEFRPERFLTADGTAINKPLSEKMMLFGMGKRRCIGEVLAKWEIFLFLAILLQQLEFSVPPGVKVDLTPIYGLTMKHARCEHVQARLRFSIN

[5] = Dose normalized AUC in CD-1 mouse at 10 mg/kg, po by LC/MS/MS analysis; assay type: ADME, organism-based; details: in vivo
[6] = Drug metabolism in rat liver microsomes assessed as oxidative/degradative M6 metabolite formation at 10 uM after 120 mins in presence of NADPH by LC/MS/MS analysis; assay type: ADME; details: 2 h
[7] = Half life in rat liver microsomes by LC/MS/MS analysis; assay type: ADME
Cytochrome P450 2C19 = Cytochrome P450 2C19 (Homo sapiens, UniProt P33261); assay: Inhibition of CYP2C19 in human liver microsomes using S-mephenytoin as substrate in presence of NADPH by LC/MS/MS analysis; assay type: ADME
Sequence of Cytochrome P450 2C19 (P33261 whole entry): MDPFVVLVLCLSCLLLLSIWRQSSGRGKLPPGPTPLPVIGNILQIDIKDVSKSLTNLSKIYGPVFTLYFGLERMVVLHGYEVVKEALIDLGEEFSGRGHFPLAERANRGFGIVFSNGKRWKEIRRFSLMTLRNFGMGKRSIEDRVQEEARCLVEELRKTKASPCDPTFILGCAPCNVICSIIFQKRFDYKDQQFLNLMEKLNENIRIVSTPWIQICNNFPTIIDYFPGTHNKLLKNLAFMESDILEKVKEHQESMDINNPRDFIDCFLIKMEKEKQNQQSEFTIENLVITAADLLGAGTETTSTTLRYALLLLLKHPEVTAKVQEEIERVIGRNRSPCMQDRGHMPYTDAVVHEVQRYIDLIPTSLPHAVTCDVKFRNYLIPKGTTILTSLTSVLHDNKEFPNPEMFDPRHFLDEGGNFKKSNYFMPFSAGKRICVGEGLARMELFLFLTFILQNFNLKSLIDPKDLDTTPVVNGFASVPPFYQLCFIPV

[8] = target: ALK tyrosine kinase receptor (Homo sapiens, UniProt Q9UM73); assay: Inhibition of NPM-ALK phosphorylation in human SUP-M2 cells after 2 to 3 hrs by ELISA; assay type: cell-based
Insulin receptor [9] = target: T2, Insulin receptor (Homo sapiens, UniProt P06213)
T2 sequence (P06213 28-758 limits assumed): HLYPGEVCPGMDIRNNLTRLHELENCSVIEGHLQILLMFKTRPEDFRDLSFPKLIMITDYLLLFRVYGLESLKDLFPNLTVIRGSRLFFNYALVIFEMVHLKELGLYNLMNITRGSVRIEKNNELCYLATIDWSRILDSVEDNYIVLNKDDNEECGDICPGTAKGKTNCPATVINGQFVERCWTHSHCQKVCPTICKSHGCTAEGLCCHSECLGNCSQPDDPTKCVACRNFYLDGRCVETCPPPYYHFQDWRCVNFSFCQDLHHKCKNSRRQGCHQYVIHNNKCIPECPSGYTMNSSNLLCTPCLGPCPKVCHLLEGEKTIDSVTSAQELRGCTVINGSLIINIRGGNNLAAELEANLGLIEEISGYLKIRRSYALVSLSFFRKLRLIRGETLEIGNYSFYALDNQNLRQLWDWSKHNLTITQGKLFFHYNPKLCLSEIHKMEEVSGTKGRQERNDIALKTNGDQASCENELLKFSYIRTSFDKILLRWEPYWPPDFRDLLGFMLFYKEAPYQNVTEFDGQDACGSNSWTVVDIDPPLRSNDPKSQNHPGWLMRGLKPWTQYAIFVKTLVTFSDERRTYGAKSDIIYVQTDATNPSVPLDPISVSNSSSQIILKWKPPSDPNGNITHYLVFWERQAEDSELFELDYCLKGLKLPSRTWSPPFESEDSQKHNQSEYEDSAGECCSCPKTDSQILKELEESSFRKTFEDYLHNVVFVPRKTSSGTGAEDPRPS
T2 sequence (P06213 763-1382 limits assumed): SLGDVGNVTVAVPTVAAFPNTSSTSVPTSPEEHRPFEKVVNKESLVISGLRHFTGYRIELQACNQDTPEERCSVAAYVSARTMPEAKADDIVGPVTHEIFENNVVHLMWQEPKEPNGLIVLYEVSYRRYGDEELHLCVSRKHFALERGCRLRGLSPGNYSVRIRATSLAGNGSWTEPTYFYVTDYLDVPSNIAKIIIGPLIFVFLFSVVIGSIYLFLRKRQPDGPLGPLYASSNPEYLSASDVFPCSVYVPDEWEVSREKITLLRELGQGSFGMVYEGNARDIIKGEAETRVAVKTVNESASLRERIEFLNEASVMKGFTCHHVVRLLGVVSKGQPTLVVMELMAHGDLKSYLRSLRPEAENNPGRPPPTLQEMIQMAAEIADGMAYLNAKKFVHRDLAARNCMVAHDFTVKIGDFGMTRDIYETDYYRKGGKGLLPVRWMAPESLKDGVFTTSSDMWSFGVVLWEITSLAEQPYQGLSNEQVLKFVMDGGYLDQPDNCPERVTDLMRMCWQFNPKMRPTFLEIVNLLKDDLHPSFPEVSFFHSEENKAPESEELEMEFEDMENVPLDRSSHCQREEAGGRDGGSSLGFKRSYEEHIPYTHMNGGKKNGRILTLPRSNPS
Description: Inhibition of INSR (unknown origin) by cell based assay

[10] = Drug metabolism in rat liver microsomes assessed as (1S,5R,6S,7R)-7-[5-Chloro-2-((S)-1-methoxy-7-morpholin-4-yl-6,7,8,9-tetrahydro-5H-benzocyclohepten-2-ylamino)-pyrimidin-4-ylamino]-3-oxa-tricyclo[3.2.1.0(2,4)]octane-6-carboxylic acid amide formation at 10 uM after 120 mins in presence of NADPH by LC/MS/MS analysis; assay type: ADME; details: 2 h
[11] = Dose normalized AUC in Sprague-Dawley rat at 5 mg/kg, po by LC/MS/MS analysis; assay type: ADME, organism-based; details: in vivo
[12] = Dose normalized AUC in cynomolgus monkey at 10 mg/kg, po by LC/MS/MS analysis; assay type: ADME, organism-based, Macaca fascicularis; details: in vivo
[13] = Drug metabolism in rat liver microsomes assessed as oxidative/degradative M5 metabolite formation at 10 uM after 120 mins in presence of NADPH by LC/MS/MS analysis; assay type: ADME; details: 2 h
[14] = target: Voltage-gated inwardly rectifying potassium channel KCNH2 (Homo sapiens, UniProt Q12809); assay: Inhibition of human ERG
Sequence of Voltage-gated inwardly rectifying potassium channel KCNH2 (Q12809 whole entry): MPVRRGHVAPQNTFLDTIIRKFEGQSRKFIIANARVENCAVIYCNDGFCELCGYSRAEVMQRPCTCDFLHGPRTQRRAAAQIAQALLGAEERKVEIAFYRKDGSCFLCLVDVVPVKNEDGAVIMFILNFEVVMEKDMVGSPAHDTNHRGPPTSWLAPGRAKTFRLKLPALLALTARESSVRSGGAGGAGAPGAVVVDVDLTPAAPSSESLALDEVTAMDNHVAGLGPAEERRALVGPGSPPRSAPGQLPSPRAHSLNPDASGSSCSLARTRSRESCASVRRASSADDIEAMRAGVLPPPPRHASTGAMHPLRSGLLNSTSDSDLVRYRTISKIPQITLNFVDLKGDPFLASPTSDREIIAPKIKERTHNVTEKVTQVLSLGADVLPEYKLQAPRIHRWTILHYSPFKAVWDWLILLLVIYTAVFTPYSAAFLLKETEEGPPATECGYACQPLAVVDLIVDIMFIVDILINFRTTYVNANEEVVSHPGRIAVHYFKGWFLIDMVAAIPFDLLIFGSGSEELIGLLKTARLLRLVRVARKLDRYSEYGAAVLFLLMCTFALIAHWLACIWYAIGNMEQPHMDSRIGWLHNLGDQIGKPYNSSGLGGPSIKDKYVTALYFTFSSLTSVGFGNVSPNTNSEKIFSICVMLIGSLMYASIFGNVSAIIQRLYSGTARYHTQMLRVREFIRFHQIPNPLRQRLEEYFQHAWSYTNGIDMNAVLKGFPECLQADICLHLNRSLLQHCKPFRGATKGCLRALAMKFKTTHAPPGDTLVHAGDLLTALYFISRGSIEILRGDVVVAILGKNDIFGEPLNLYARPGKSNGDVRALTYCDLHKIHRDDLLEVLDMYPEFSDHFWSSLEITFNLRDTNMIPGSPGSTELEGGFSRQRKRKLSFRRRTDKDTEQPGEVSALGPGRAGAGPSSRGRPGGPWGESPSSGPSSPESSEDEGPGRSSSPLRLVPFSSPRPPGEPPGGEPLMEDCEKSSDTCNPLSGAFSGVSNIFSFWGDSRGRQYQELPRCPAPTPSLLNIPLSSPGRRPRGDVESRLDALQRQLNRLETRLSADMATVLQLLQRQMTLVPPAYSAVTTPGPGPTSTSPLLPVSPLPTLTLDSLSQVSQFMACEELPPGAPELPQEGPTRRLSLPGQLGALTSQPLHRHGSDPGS

[15] = Half life in CD-1 mouse liver microsomes by LC/MS/MS analysis; assay type: ADME
Insulin receptor [16] = target: T2, Insulin receptor; remark: listed apart in the source
Description: Inhibition of recombinant human INSR expressed in baculovirus using ATP as substrate after 15 mins by TRF assay

[17] = Drug metabolism in human liver microsomes assessed as oxidative/degradative M5 metabolite formation at 10 uM after 120 mins in presence of NADPH by LC/MS/MS analysis; assay type: ADME; details: 2 h
[18] = Half life in cynomolgus monkey liver microsomes by LC/MS/MS analysis; assay type: ADME, Macaca fascicularis
[19] = Drug metabolism in rat liver microsomes assessed as oxidative/degradative M2 metabolite formation at 10 uM after 120 mins in presence of NADPH by LC/MS/MS analysis; assay type: ADME; details: 2 h
Cytochrome P450 2C9 = Cytochrome P450 2C9 (Homo sapiens, UniProt P11712); assay: Inhibition of CYP2C9 in human liver microsomes using diclofenac as substrate in presence of NADPH by LC/MS/MS analysis; assay type: ADME
Sequence of Cytochrome P450 2C9 (P11712 whole entry): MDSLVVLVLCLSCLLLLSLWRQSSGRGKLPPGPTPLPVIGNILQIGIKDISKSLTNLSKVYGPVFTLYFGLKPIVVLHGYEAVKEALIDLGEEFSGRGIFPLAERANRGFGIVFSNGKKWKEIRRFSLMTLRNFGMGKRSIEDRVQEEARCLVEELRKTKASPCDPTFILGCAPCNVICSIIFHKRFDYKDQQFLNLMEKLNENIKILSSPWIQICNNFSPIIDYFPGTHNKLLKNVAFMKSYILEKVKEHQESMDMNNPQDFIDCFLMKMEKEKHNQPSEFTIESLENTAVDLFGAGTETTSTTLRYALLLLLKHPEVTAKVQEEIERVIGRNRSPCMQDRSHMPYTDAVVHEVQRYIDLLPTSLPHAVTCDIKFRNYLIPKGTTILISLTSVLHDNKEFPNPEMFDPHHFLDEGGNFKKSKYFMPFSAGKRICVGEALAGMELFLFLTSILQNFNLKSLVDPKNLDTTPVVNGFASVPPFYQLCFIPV

Cytochrome P450 2D6 = Cytochrome P450 2D6 (Homo sapiens, UniProt P10635); assay: Inhibition of CYP2D6 in human liver microsomes using dextromethorphan as substrate in presence of NADPH by LC/MS/MS analysis; assay type: ADME
Sequence of Cytochrome P450 2D6 (P10635 whole entry): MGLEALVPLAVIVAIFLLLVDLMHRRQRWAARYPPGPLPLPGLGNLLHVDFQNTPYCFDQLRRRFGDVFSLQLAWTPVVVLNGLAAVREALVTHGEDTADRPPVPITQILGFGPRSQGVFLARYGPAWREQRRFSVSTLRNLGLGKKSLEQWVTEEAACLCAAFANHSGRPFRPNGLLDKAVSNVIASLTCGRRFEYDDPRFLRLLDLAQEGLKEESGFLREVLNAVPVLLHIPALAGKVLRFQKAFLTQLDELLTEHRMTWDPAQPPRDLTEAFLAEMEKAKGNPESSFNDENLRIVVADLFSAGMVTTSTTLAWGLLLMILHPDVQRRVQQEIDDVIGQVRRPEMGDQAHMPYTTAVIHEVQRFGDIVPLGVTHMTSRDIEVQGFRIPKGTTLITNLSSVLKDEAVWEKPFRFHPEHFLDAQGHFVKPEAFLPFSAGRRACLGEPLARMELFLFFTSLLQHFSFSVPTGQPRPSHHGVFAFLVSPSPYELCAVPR

Focal adhesion kinase 1 = Focal adhesion kinase 1 (Homo sapiens, UniProt Q05397); assay: Inhibition of human FAK expressed in baculovirus after 30 mins using biotinyl-amino-hexanoyl-EQEDEPEGDYFEWLE-amide as substrate by TRF assay
Sequence of Focal adhesion kinase 1 (Q05397 whole entry): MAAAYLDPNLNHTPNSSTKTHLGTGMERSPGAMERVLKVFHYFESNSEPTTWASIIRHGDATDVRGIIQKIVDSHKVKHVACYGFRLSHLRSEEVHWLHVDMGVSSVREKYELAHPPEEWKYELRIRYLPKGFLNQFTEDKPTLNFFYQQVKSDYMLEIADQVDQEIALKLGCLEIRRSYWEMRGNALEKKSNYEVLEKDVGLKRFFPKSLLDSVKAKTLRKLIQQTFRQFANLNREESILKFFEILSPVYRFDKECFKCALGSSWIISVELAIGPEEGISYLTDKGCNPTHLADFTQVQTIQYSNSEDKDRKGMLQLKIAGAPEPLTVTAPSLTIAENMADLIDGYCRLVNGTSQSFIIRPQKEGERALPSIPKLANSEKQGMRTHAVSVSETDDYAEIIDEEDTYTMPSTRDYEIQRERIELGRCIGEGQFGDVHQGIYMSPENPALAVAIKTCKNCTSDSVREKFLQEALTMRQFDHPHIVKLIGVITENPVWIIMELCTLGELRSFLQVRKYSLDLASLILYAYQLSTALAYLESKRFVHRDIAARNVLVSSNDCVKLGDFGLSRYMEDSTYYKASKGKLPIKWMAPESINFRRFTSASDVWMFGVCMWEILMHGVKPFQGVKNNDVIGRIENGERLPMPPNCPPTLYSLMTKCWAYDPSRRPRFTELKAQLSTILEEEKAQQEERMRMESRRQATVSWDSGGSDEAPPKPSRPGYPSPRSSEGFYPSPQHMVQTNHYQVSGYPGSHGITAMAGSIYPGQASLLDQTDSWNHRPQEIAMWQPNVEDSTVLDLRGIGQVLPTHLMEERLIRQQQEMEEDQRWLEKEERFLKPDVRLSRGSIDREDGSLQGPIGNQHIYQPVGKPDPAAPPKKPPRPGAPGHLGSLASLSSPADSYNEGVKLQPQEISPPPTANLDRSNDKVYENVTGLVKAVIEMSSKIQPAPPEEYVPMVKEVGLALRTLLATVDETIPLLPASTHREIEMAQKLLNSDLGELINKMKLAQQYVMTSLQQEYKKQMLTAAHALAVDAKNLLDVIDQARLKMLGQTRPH

[20] = Drug metabolism in human liver microsomes assessed as oxidative/degradative M1 metabolite formation at 10 uM after 120 mins in presence of NADPH by LC/MS/MS analysis; assay type: ADME; details: 2 h
[21] = Drug metabolism in human liver microsomes assessed as oxidative/degradative M2 metabolite formation at 10 uM after 120 mins in presence of NADPH by LC/MS/MS analysis; assay type: ADME; details: 2 h
[22] = Drug metabolism in human liver microsomes assessed as (1S,5R,6S,7R)-7-[5-Chloro-2-((S)-1-methoxy-7-morpholin-4-yl-6,7,8,9-tetrahydro-5H-benzocyclohepten-2-ylamino)-pyrimidin-4-ylamino]-3-oxa-tricyclo[3.2.1.0(2,4)]octane-6-carboxylic acid amide formation at 10 uM after 120 mins in presence of NADPH by LC/MS/MS analysis; assay type: ADME; details: 2 h

Question: Which results are given for `COc1c(Nc2ncc(Cl)c(N[C@H]3[C@@H](C(N)=O)[C@@H]4C=C[C@H]3C4)n2)ccc2c1CC[C@@H](N1CCOCC1)CC2`?
Answer: Drug metabolism [1]: Metabolite_Detected; half-life [2]: 10 to 11 min; AUC(0-inf) [3]: 1200 ng·h/mL; Drug metabolism [4]: Metabolite_Detected; IC50 (Cytochrome P450 1A2): > 10 µM; AUC/dose [5]: 299 ng·h/mL; Drug metabolism [6]: Metabolite_Detected; half-life [7]: 7 to 16 min; IC50 (Cytochrome P450 2C19): > 10 µM; IC50 [8]: 0.02 to 0.042 µM; IC50 (Insulin receptor [9]): > 10 µM; Drug metabolism [10]: Metabolite_Detected; AUC/dose [11]: 246 ng·h/mL; AUC/dose [12]: 95 ng·h/mL; Drug metabolism [13]: Metabolite_Detected; IC50 [14]: > 10 µM; half-life [15]: 8 to 13 min; IC50 (Insulin receptor [16]): 0.662 to 1.26 µM; Drug metabolism [17]: Metabolite_Detected; half-life [18]: 17 min; Drug metabolism [19]: Metabolite_Detected; IC50 (Cytochrome P450 2C9): > 10 µM; IC50 (Cytochrome P450 2D6): > 10 µM; IC50 (Focal adhesion kinase 1): 0.025 to 0.03 µM; Drug metabolism [20]: Metabolite_Detected; Drug metabolism [21]: Metabolite_Detected; Drug metabolism [22]: Metabolite_Detected

— ChEMBL document CHEMBL3856231 (J Med Chem, 2016)
